Results: patent US20260034123A1 (Cedilla Therapeutics, Inc., priority 2022, published 2026)

Tests used:
[1] = target: CDK2/Cyclin E1 (Homo sapiens, UniProt P24941); test: ADP-Glo Luminescent Kinase Assay (CDK2/E1-37C); type: biochemical; conditions: 0.18 nM CDK2/Cyclin E1, 100 μM ATP, Histone H1, 37° C.; read-out: ADPGLO (CDK2/E1-37C): IC50
Protocol: Inhibition of CDK2/Cyclin E1 activity by the presence of small molecules was evaluated using ADP-Glo Luminescent Kinase Assay (Promega). Activated CDK2/Cyclin E1 was incubated with its substrate Histone H1 (SignalChem H10-54N) in the kinase reaction buffer (100 μM ATP, 50 mM HEPES pH 7.5, 10 mM MgCl2, 1 mM EDTA, 2 mM DTT, 0.01% Brij35, 0.5 mg/mL BSA). Luminescence was recorded with an Envision plate reader (PerkinElmer).
Dose titrations of inhibitors in 100% DMSO were combined with 0.36 nM CDK2/Cyclin E1 in reaction buffer. The mixtures were incubated for 60 minutes at 37° C. before the addition of ATP and Histone H1 substrate to initiate the kinase reaction. The final conditions were 0.18 nM CDK2/Cyclin E1, 100 μM ATP, and […] Histone H1. The reactions were incubated at 37° C. for 90 minutes before being stopped with the addition of ADP-Glo reagent. This mixture was incubated at room temperature for 60 minutes before Kinase Detection Solution is added to generate luminescence. The stopped reactions were analyzed on an Envision plate reader. The conversion ratios were normalized to yield % activity, plotted against compound concentration, and fit to a four-parameter equation to determine the IC50 for each compound.

[2] = tested on: Kuramochi cells RB-WT; test: IncuCyte Kuramochi cell proliferation assay, RB-WT; type: cell-based; conditions: 72 hours, cell count
Protocol: (§1) IncuCyte® assay was used to measure the effect of disclosed compounds on cell proliferation. Fluorescent microscopy images of cells were taken immediately after compound treatment and 72 hours later. Image analysis software was used to obtain cell counts as a function of compound concentration. Kuramochi cells labeled with mApple-H2B were seeded on 384-well assay-ready plates. Plates were placed in an IncuCyte® (Sartorius) and scanned at 0 and 72 hours. IncuCyte® software was used to count the number of fluorescent nuclei in each well. The fold change in cell count from 0 to 72 hours in wells treated with increasing compounds concentrations (10 pts, 1/2 log dilution, 20 µM top concentration) was normalized to DMSO control wells. The normalized cell counts were fit with dose response curves and a GI50 was calculated.

[3] = tested on: Kuramochi cells RB-KO; test: IncuCyte Kuramochi cell proliferation assay, RB-KO; type: cell-based; conditions: 72 hours, cell count, batch mean
Protocol: as §1

IC50 [1] | Compound | IC50 [2] | IC50 [3]
0.5 to 5 µM | CS(=O)(=O)NC(=O)c1c(COC[C@@H]2CN(C(=O)c3cnn(Cc4ccc(C(F)(F)F)cc4)c3)CC23CN(C(=O)C2(C(F)(F)F)CC2)C3)cccc1C1CCC(C(F)(F)F)CC1 (stereo partly drawn) [Compound I-68] | > 10 µM | > 10 µM
≤ 0.5 µM | CC(C)(C(=O)N1CC2(CN(C(=O)c3cnn(Cc4ccc(F)cc4)c3)C[C@H]2COCc2cccc(C3CCC(F)(F)CC3)c2C(=O)O)C1)C(F)(F)F [Compound I-101, (S)-2-(4,4-difluorocyclohexyl)-6-(((6-(1-(4-fluorobenzyl)-1H-pyrazole-4-carbonyl)-2-(3,3,3-trifluoro-2,2-dimethylpropanoyl)-2,6-diazaspiro[3.4]octan-8-yl)methoxy)methyl)benzoic acid] | 0.5 to 5 µM | > 10 µM
≤ 0.5 µM | CC(C)(C(=O)N1CC2(CN(C(=O)c3cnn(Cc4ccc(F)cc4)c3)C[C@H]2COCc2cccc(N3CCC(C(F)(F)F)CC3)c2C(=O)O)C1)C(F)(F)F [I′-19, (S)-2-(((6-(1-(4-fluorobenzyl)-1H-pyrazole-4-carbonyl)-2-(3,3,3-trifluoro-2,2-dimethylpropanoyl)-2,6-diazaspiro[3.4]octan-8-yl)methoxy)methyl)-6-(4-(trifluoromethyl)piperidin-1-yl)benzoic acid] | 0.5 to 5 µM | > 10 µM
≤ 0.5 µM | CC(C)(C(=O)N1CC2(CN(C(=O)c3cnn(Cc4ccc(F)cc4)c3)C[C@H]2COCc2cccc(-c3cccc(C(F)(F)F)c3)c2C(=O)O)C1)C(F)(F)F [I′-27, (S)-3-(((6-(1-(4-fluorobenzyl)-1H-pyrazole-4-carbonyl)-2-(3,3,3-trifluoro-2,2-dimethylpropanoyl)-2,6-diazaspiro[3.4]octan-8-yl)methoxy)methyl)-3′-(trifluoromethyl)-[1,1′-biphenyl]-2-carboxylic acid] | 5 to 10 µM | > 10 µM
≤ 0.5 µM | COc1ccc(C2CCC(F)(F)CC2)c(C(=O)O)c1COCC1CN(C(=O)c2cnn(Cc3ccc(F)cc3)c2)CC12CN(C(=O)C1(C(F)(F)F)CC1)C2 (stereo not drawn) [I′-67] | > 10 µM | > 10 µM
0.5 to 5 µM | O=C(O)c1c(/C=C/CC2CN(C(=O)c3cnn(Cc4ccc(F)cc4)c3)CC23CN(C(=O)C2(C(F)(F)F)CC2)C3)cccc1C1CCC(F)(F)CC1 (stereo not drawn) [I′-46] | 5 to 10 µM | > 10 µM
≤ 0.5 µM | CC(C(=O)N1CC2(CN(C(=O)c3cnn(Cc4ccc(F)cc4)c3)C[C@H]2COCc2cccc(C3CCC(C(F)(F)F)CC3)c2C(=O)O)C1)C(F)(F)F (stereo partly drawn) [Compound I-97, 2-((((8S)-6-(1-(4-fluorobenzyl)-1H-pyrazole-4-carbonyl)-2-(3,3,3-trifluoro-2-methylpropanoyl)-2,6-diazaspiro[3.4]octan-8-yl)methoxy)methyl)-6-(4-(trifluoromethyl)cyclohexyl)benzoic acid] | 5 to 10 µM | > 10 µM
≤ 0.5 µM | CC1(C)C[C@@H]1C(=O)N1CC2(CN(C(=O)c3cnn(Cc4ccc(F)cc4)c3)CC2COCc2cccc(C3CCC(F)(F)CC3)c2C#N)C1 (stereo partly drawn) [I′-75, 2-(4,4-difluorocyclohexyl)-6-(((2-((S)-2,2-dimethylcyclopropane-1-carbonyl)-6-(1-(4-fluorobenzyl)-1H-pyrazole-4-carbonyl)-2,6-diazaspiro[3.4]octan-8-yl)methoxy)methyl)benzonitrile] | > 10 µM | > 10 µM
≤ 0.5 µM | CC(C)(C(=O)N1CC2(CN(C(=O)c3cnn(Cc4ccc(F)cc4)c3)C[C@H]2COCc2cccc(C3CCC(F)(F)CC3)c2-c2nn[nH]n2)C1)C(F)(F)F [I′-24] | 0.5 to 5 µM | > 10 µM
0.5 to 5 µM | O=C(O)c1c(COC[C@@H]2CN(C(=O)c3cnn(Cc4ccc(F)cc4)c3)CC23CN(C(=O)C2CCO2)C3)cccc1C1CCC(C(F)(F)F)CC1 (stereo partly drawn) [Compound I-96] | > 10 µM | > 10 µM
≤ 0.5 µM | CC1(C)C[C@@H]1C(=O)N1CC2(CN(C(=O)c3cnn(Cc4ccc(F)cc4)c3)CC2COCc2cccc(C3CCC(F)(F)CC3)c2-c2nn[nH]n2)C1 (stereo partly drawn) [I′-70, (8-(((3-(4,4-difluorocyclohexyl)-2-(2H-tetrazol-5-yl)benzyl)oxy)methyl)-2-((S)-2,2-dimethylcyclopropane-1-carbonyl)-2,6-diazaspiro[3.4]octan-6-yl)(1-(4-fluorobenzyl)-1H-pyrazol-4-yl)methanone] | > 10 µM | > 10 µM
0.5 to 5 µM | C[C@H](c1ccc(F)cc1)n1cc(C(=O)N2CC(COCc3cccc(C4CCC(C(F)(F)F)CC4)c3C(=O)O)C3(C2)CN(C(=O)C2(C(F)(F)F)CC2)C3)cn1 (stereo partly drawn) [Compound I-78] | > 10 µM | > 10 µM
0.5 to 5 µM | C[C@@H](c1ccc(F)cc1)n1cc(C(=O)N2CC(COCc3cccc(C4CCC(C(F)(F)F)CC4)c3C(=O)O)C3(C2)CN(C(=O)C2(C(F)(F)F)CC2)C3)cn1 (stereo partly drawn) [Compound I-77] | > 10 µM | > 10 µM
0.5 to 5 µM | CC(C)(C(=O)N1CC2(CN(C(=O)c3cnn(Cc4ccc(F)cc4)c3)C[C@H]2COCc2cccc(-c3ccccc3C(=O)O)c2)C1)C(F)(F)F [I′-40] | 0.5 to 5 µM | 5 to 10 µM
≤ 0.5 µM | CC1(C)C[C@@H]1C(=O)N1CC2(CN(C(=O)c3cnn(Cc4ccc(F)cc4C(F)(F)F)c3)C[C@H]2COCc2cccc(C3CCC(F)(F)CC3)c2C(=O)O)C1 [Compound I-118, 2-(4,4-difluorocyclohexyl)-6-(((2-((S)-2,2-dimethylcyclopropane-1-carbonyl)-6-(1-(4-fluoro-2-(trifluoromethyl)benzyl)-1H-pyrazole-4-carbonyl)-2,6-diazaspiro[3.4]octan-8-yl)methoxy)methyl)benzoic acid] | 5 to 10 µM | > 10 µM
> 10 µM | CC1(C)C[C@@H]1C(=O)N1CC2(CN(C(=O)c3cnn(Cc4ccc(F)cc4)c3)CC2/C=C\Cc2cccc(C3CCC(F)(F)CC3)c2C(=O)O)C1 (stereo partly drawn) [I′-69] | 5 to 10 µM | > 10 µM
5 to 10 µM | O=C(O)c1c(COC[C@@H]2CN(c3cc(C(F)(F)F)c(F)c4ncsc34)CC23CN(C(=O)C2(C(F)(F)F)CC2)C3)cccc1C1CCC(F)(F)CC1 [I′-48] | ≤ 0.5 µM | > 10 µM
≤ 0.5 µM | CC(C)(C(=O)N1CC2(CN(C(=O)c3cnn(Cc4ccc(F)cc4)c3)C[C@H]2COCc2cccc(-c3ccc(F)cc3)c2C(=O)O)C1)C(F)(F)F [I′-38] | 5 to 10 µM | > 10 µM
0.5 to 5 µM | O=C(O)c1c(COC[C@@H]2CN(c3cc(Cl)c(Cl)c4ncsc34)CC23CN(C(=O)C2(C(F)(F)F)CC2)C3)cccc1C1CCC(F)(F)CC1 [I′-49] | > 10 µM | > 10 µM
≤ 0.5 µM | O=C(c1cnn(Cc2ccc(C(F)(F)F)cc2)c1)N1C[C@@H](COCc2cccc(C3CCC(C(F)(F)F)CC3)c2-c2nn[nH]n2)C2(C1)CN(C(=O)C1(C(F)(F)F)CC1)C2 (stereo partly drawn) [Compound I-69] | > 10 µM | > 10 µM
> 10 µM | O=C(O)c1c(COC[C@@H]2CN(c3cc(F)c(F)c4[nH]ccc34)CC23CN(C(=O)C2(C(F)(F)F)CC2)C3)cccc1C1CCC(F)(F)CC1 [I′-61] | > 10 µM | > 10 µM
> 10 µM | O=C(O)c1ccc(C2CCN(C(=O)COCC3CN(C(=O)c4cnn(Cc5ccccc5)c4)CC34CN(C(=O)C3(C(F)(F)F)CC3)C4)CC2)c(OC2CCCCC2)c1 (stereo not drawn) [Compound I-60, 4-(1-(2-((6-(1-benzyl-1H-pyrazole-4-carbonyl)-2-(1-(trifluoromethyl)cyclopropane-1-carbonyl)-2,6-diazaspiro[3.4]octan-8-yl)methoxy)acetyl)piperidin-4-yl)-3-(cyclohexyloxy)benzoic acid] | > 10 µM | 
> 10 µM | O=C(O)C(=CC1CN(C(=O)c2cnc(O)cn2)CC12CN(C(=O)C1(C(F)(F)F)CC1)C2)Cc1cccc(-c2ccc(C(F)(F)F)cc2)n1 (stereo not drawn) [Compound I-63, 3-(6-(5-hydroxypyrazine-2-carbonyl)-2-(1-(trifluoromethyl)cyclopropane-1-carbonyl)-2,6-diazaspiro[3.4]octan-8-yl)-2-((6-(4-(trifluoromethyl)phenyl)pyridin-2-yl)methyl)acrylic acid] | > 10 µM | 
5 to 10 µM | O=C(O)c1c(COCC2CN(C(=O)c3cnn(Cc4ccc(C(F)(F)F)cc4)c3)CC23CN(C(=O)C2(C(F)(F)F)CC2)C3)cccc1C1CCC(C(F)(F)F)CC1 (stereo not drawn) [Compound I-52, 2-(((6-(1-(4-(trifluoromethyl)benzyl)-1H-pyrazole-4-carbonyl)-2-(1-(trifluoromethyl)cyclopropane-1-carbonyl)-2,6-diazaspiro[3.4]octan-8-yl)methoxy)methyl)-6-(4-(trifluoromethyl)cyclohexyl)benzoic acid] | > 10 µM | 
